The text below walks through data of patent publication US20250282799A1, “SUBSTITUTED PYRIDO[4,3-d]PYRIMIDINES AS KRAS MODULATORS” (Alterome Therapeutics, Inc., priority 2023, published 2025).

In data set [1] the test system is KRAS G12V dependent lung adenocarcinoma cell line, NCI-H441. The experiment in a line: Cellular pERK (Thr202/Tyr204) FRET/HTRF assay. The data set is classed as cell-based. The settings on record: Homo sapiens. The method, boiled down:
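Using a mix-and-read HTRF kit, phospho-ERK (Thr202/Tyr204) was detected in NCI-H441 lysates following 1 hr compound incubation at 37 °C, 5% CO2. Cells had been seeded overnight beforehand, and IC50 was derived by curve fitting.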

Data set [2] in a line: Pharmacokinetic evaluation, single dosing (oral and intravenous) in rats. Also on record: unit not given here. The settings on record: rat, plasma. The format is in vivo, male Sprague-Dawley rats. On the procedure: Pharmacokinetic profile for test compound was measured by single dosing in male Sprague-Dawley rats. Animal weights were typically over 200 grams, and animals were allowed to acclimate to their new environment for at least 3 days prior to the initiation of any studies. One set of animals was dosed intravenous with test compound, 2 mg/kg in 20% PEG400, 10% HS-15 Solutol, 70% 50 mM citrate buffer (pH 4.0). Intravenous dosing solution concentration was 1.0 mg/mL. Time of blood sampling was 5 minutes, 15 minutes, 30 minutes, 1 hour, 2 hours, 4 hours, 8 hours, and 24 hours following intravenous dosing. Another set of animals was dosed orally with test compound, 30 mg/kg in 20% PEG400, 10% HS-15 Solutol, 70% 50 mM citrate buffer (pH 4.0). Oral dosing solution concentration was 3.0 mg/mL. Time of blood sampling was 15 minutes, 30 minutes, 1 hour, 2 hours, 4 hours, 8 hours, and 24 hours following oral dosing. Blood samples (˜0.2 mL/sample) were collected via jugular vein and placed in tubes containing Heparin-Na. The blood samples in tubes were mixed and then placed on wet ice prior to centrifugation for plasma. The blood samples were centrifuged at 4000 g for 5 minutes at 4° C. to obtain plasma. The obtained plasma was separated and stored frozen at approximately −80° C.
All the plasma samples were analyzed using a Shimadzu (DGU-405) HPLC with an API 6500+MS/MS system following the manufacturer's instructions. All the analytes were detected with positive-mode electrospray ionization (ES+). A standard curve for each test compound was generated and used to measure test compound concentrations in the rat plasma samples. Based on the time course sampling, an area under the curve (AUC) was calculated for the oral group and intravenous group. The percentage of rat bioavailability is calculated based on the equation shown below.
where F is bioavailability, AUCPO is area under curve of oral dosing, AUCIV is area under curve of intravenous dosing, DoseIV is the intravenous dose and DosePO is the oral dose. The oral dosing for the experiments presented in Table 5 was performed at 10 mg/kg unless noted otherwise.

The target of data set [3] is KRAS (G12D)/CRAF (Homo sapiens (Human), UniProt P01116, G12D). As to the kind of experiment: TR-FRET biochemical KRAS:CRAF protein:protein interaction assay, KRAS (G12D). The format is binding. The settings on record: GMPPNP loaded Biotin-KRAS (G12D), FLAG CRAF RBD; read-out: TR-Fret_PPI KRAS (G12D)/CRAF IC50. The protocol:
(§1) The effect of test compounds on KRAS and CRAF protein: protein interaction (PPI) was measured by time resolved fluorescence resonance energy transfer (TR-FRET) Ras binding domain (RBD) assay, which uses a signal generated through fluorescent resonance energy transfer between a donor and an acceptor molecule when in close proximity to each other. Interference from buffer, media, etc. is reduced by dual-wavelength detection; the energy pulse from the excitation source is followed by a time delay, which allows interfering short-lived fluorescence to decay (Degorce et al. 2009).
(§2) The KRAS: CRAF PPI assay can be utilized to identify KRAS ‘ON’ state inhibitors, as the KRAS protein is loaded with GMPPNP (a non-hydrolyzable GTP analog), which represents the active KRAS ‘ON’ state. FLAG-tagged CRAF RBD binding to the GMPPNP loaded biotin-tagged KRAS will result in a fluorescence energy transfer from the donor (Tb-anti-FLAG, emission 620 nm) to the acceptor (SA-XL665, emission 665 nm). Disruption of KRAS and CRAF binding will reduce the TR-FRET signal.
(§3) Test compound was dissolved in DMSO to create a 1 mM stock solution. A 45 μL volume of stock solution was transferred to a 384well polypropylene plate. A 3fold, 10point dilution was performed by transferring 15 μL of test compound solution into 30 μL of DMSO.
(§4) Assay buffer A was prepared with […] Hepes, pH7.3, 0.002% Tween 20, 0.1% BSA, […] NaCl, 5 mM MgCl2, and 10 uM GMP-PNP. 4× KRAS Solution was prepared with 80 nM of Biotin-KRAS (G12D/V), GMPPNP loaded or Biotin-KRAS (WT), GMPPNP loaded protein in assay buffer A. 4× Raf RBD Solution was prepared with 400 nM FLAG CRAF RBD in assay buffer A. 2× Detection Mixture was prepared with 2 nM Tb-anti-FLAG antibody and 10 nM and 10 nM SA-XL665 in assay buffer A.
(§5) A volume of 100 nL of 100× test compound working solution or DMSO vehicle control solution was dispensed to each well (duplicate for each concentration) of a 384-well ProxiPlate Plus assay plate. A volume of 2.5 μL of 4× KRAS Solution was added to each well of the assay plate for a final concentration of 20 nM Biotin-KRAS (G12D/V),GMPPNP loaded or 20 nM Biotin-KRAS (WT), GMPPNP. For low control, add 2.5 μL of assay buffer (no KRAS protein). Pre-incubate assay plate for 30 minutes at room temperature. Following pre-incubation of test compound or DMSO with Biotin-KRAS (G12D/V),GMPPNP loaded or Biotin-KRAS (WT),GMPPNP, a volume of 2.5 μL of 4× FLAG cRAF RBD Solution was added to each well of the assay plate for a final concentration of 100 nM FLAG CRAF RBD. The assay plate was subjected to centrifuge at 1000 rpm for 1 minute and pre-incubate assay plate for 150 minutes at room temperature. Following the pre-incubation with FLAG cRAF RBD, a volume of 5 μl of 2× Detection Mixture was added to each well of the assay plate for a final concentration of 1 nM Tb-anti-FLAG and 5 nM SA-XL665. The assay plate was centrifuged at 1000 rpm for 1 minute and incubated for 90 minutes at room temperature. TR-FRET signal was measured on a BioTek Synergy Neo2 microplate reader (excitation at 340 nm, emission at 665 nn and 620 nm).
(§6) TR-FRET ratios were calculated by dividing the acceptor emission value (665 nm) by the donor emission value (620 nm) for each sample.
(§7) Percent inhibition was calculated by multiplying the normalized TR-FRET ratio by 100, where TR-FRET ratio^HIGH was the TR-FRET ratio obtained from wells with 1% DMSO and complete reaction mixture, TR-FRET ratio^LOW was the ratio obtained from wells with 1% DMSO and reaction mixture without KRAS protein and TR-FRET ratio^SAMPLE was the TR-FRET ratio from wells with test compound and complete reaction mixture. The IC50 values were calculated from normalized TR-FRET ratios with the Levenberg-Marquardt 4 parameter fitting procedure.
(§8) This assay quantifies the interaction of a KRAS mutant protein (e.g., G12V) with the CRAF Ras-binding domain (RBD). […]
A general note: TR-FRET usually uses a lanthanide donor and a delayed reading to cut background.

In data set [4] the target is KRAS (G12V)/CRAF (Homo sapiens (Human), UniProt P01116, G12V). The experiment in a line: TR-FRET biochemical KRAS:CRAF protein:protein interaction assay, KRAS (G12V). The format is binding. The settings on record: GMPPNP loaded Biotin-KRAS (G12V), FLAG CRAF RBD; read-out: TR-Fret_PPI KRAS (G12V)/CRAF IC50. The protocol: as §1, §2, §3, §4, §5, §6, §7, §8
Sequence of KRAS (G12V)/CRAF (P01116-2 other isoform, or with tags, fused parts or gaps G12V): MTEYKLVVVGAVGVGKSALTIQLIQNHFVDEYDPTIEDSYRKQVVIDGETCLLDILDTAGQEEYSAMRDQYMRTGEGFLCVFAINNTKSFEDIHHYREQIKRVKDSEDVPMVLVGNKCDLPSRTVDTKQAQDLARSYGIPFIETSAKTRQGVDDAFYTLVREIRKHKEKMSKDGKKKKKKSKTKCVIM
[5] abbreviates: NCI-H441, pERK HTRF, NCI-H441 cells (KRAS G12V).
[6] abbreviates: NCI-H441, cellular pERK (Thr202/Tyr204) HTRF, NCI-H441 cells.

Sequence of KRAS (G12D)/CRAF (P01116-2 other isoform, or with tags, fused parts or gaps G12D): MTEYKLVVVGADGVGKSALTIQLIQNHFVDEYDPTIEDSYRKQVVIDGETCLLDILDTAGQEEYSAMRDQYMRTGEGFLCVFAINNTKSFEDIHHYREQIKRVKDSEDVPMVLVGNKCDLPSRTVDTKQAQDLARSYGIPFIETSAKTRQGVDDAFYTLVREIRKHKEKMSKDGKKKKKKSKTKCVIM

`[2H]C([2H])(Oc1nc(N2CCCO[C@H]3C(F)[C@H]32)c2cnc(-c3cc(N)cc4ccc(F)c(C#C)c34)c(F)c2n1)[C@@]12CCCN1C[C@H](F)C2` (stereo in doubt) [Example 89, 5-Ethynyl-6-fluoro-4-(8-fluoro-4-((1R,7S,8R)-8-fluoro-2-oxa-6-azabicyclo[5.1.0]octan-6-yl)-2-(((2R,7aS)-2-fluorotetrahydro-1H-pyrrolizin-7a(5H)-yl)methoxy-d2)pyrido[4,3-d]pyrimidin-7-yl)naphthalen-2-amine]: in data set [1] (setting [5]), the IC50 is below 0.05 µM. Also, in data set [2], the “IV (dose 2 mg/kg) (AUC/D) (h*mg/mL)” value is 323 and the “PO (dose 10 mg/kg) (AUC/D) (h*mg/mL)” value came out at 22.

In data set [1] (setting [5]), `[2H]C([2H])(Oc1nc(N2CCCO[C@H]3[C@H](F)[C@H]32)c2cnc(-c3cc(N)cc4cc(F)c(F)c(C#C)c34)c(F)c2n1)[C@@]12CCCN1C[C@H](F)C2` [Example 24, 5-Ethynyl-6,7-difluoro-4-(8-fluoro-4-((1R,7S,8R)-8-fluoro-2-oxa-6-azabicyclo[5.1.0]octan-6-yl)-2-(((2R,7aS)-2-fluorotetrahydro-1H-pyrrolizin-7a(5H)-yl)methoxy-d2)pyrido[4,3-d]pyrimidin-7-yl)naphthalen-2-amine] gave an IC50 below 0.05 µM. In data set [2], the “IV (dose 2 mg/kg) (AUC/D) (h*mg/mL)” value is 405 and the “PO (dose 10 mg/kg) (AUC/D) (h*mg/mL)” value turned out to be 35.

Consider `[2H]C([2H])(Oc1nc(N2CCOC[C@H]3[C@H](Cl)[C@H]32)c2cnc(-c3cc(N)cc4ccc(F)c(C#C)c34)c(F)c2n1)[C@@]12CCCN1[C@H](C)[C@H](F)C2` [Example 340, 4-(4-((1S,7S,8S)-8-Chloro-5-oxa-2-azabicyclo[5.1.0]octan-2-yl)-8-fluoro-2-(((2R,3R,7aS)-2-fluoro-3-methyltetrahydro-1H-pyrrolizin-7a(5H)-yl)methoxy-d2)pyrido[4,3-d]pyrimidin-7-yl)-5-ethynyl-6-fluoronaphthalen-2-amine], for which the values for the IC50 in data set [1] (setting [6]), in data set [3] and in data set [4] were below 0.05 µM, 0.00714 µM and 0.0501 µM, respectively.

With `[2H]C([2H])(Oc1nc(N2CCCC[C@@H]3[C@@H](Cl)[C@@H]32)c2cnc(-c3cc(N)cc4ccc(F)c(C#C)c34)c(F)c2n1)[C@@]12CCCN1C[C@H](F)C2` [Example 341, 4-(4-((1R,7S,8R)-8-chloro-2-azabicyclo[5.1.0]octan-2-yl)-8-fluoro-2-(((2R,7aS)-2-fluorotetrahydro-1H-pyrrolizin-7a(5H)-yl)methoxy-d2)pyrido[4,3-d]pyrimidin-7-yl)-5-ethynyl-6-fluoronaphthalen-2-amine], the IC50 in data set [1] (setting [6]) is 0.5 to 10 µM; in data set [3], 1.79 µM; in data set [4] it was at least 10 µM.

For the compound `[2H]C([2H])(Oc1nc(N2CCCC[C@H]3[C@H](Cl)[C@H]32)c2cnc(-c3cc(N)cc4ccc(F)c(C#C)c34)c(F)c2n1)[C@@]12CCCN1C[C@H](F)C2` [Example 342, 4-(4-((1S,7R,8S)-8-chloro-2-azabicyclo[5.1.0]octan-2-yl)-8-fluoro-2-(((2R,7aS)-2-fluorotetrahydro-1H-pyrrolizin-7a(5H)-yl)methoxy-d2)pyrido[4,3-d]pyrimidin-7-yl)-5-ethynyl-6-fluoronaphthalen-2-amine], the IC50 in data set [1] (setting [6]) was below 0.05 µM; in data set [3], 0.00904 µM; in data set [4], 0.0547 µM.

Turning to `[2H]C([2H])(Oc1nc(N2CCCC[C@@H]3[C@H](Cl)[C@@H]32)c2cnc(-c3cc(N)cc4ccc(F)c(C#C)c34)c(F)c2n1)[C@@]12CCCN1C[C@H](F)C2` [Example 343, 4-(4-((1R,7S,8S)-8-chloro-2-azabicyclo[5.1.0]octan-2-yl)-8-fluoro-2-(((2R,7aS)-2-fluorotetrahydro-1H-pyrrolizin-7a(5H)-yl)methoxy-d2)pyrido[4,3-d]pyrimidin-7-yl)-5-ethynyl-6-fluoronaphthalen-2-amine], the IC50 is 0.5 to 10 µM in data set [1] (setting [6]), 3 µM in data set [3] and at least 10 µM in data set [4].

In the case of `[2H]C([2H])(Oc1nc(N2CCCC[C@H]3[C@@H](Cl)[C@H]32)c2cnc(-c3cc(N)cc4ccc(F)c(C#C)c34)c(F)c2n1)[C@@]12CCCN1C[C@H](F)C2` [Example 344, 4-(4-((1S,7R,8R)-8-chloro-2-azabicyclo[5.1.0]octan-2-yl)-8-fluoro-2-(((2R,7aS)-2-fluorotetrahydro-1H-pyrrolizin-7a(5H)-yl)methoxy-d2)pyrido[4,3-d]pyrimidin-7-yl)-5-ethynyl-6-fluoronaphthalen-2-amine], the IC50 was 0.5 to 10 µM in data set [1] (setting [6]), 1.93 µM in data set [3] and at least 10 µM in data set [4].
